What was measured:
[1] = biological target: Trypsin (Sus scrofa, UniProt P00761); assay: Binding affinity value against trypsin
[2] = Volume distribution value in sprague dawley rat was determined at a dosage of 3 mg/kg; type: ADME, organism-based; design: dose 3 mg/kg; settings: in vivo
[3] = Area under the curve time curve value in sprague dawley rat was determined at a dosage of 3 mg/kg; type: ADME, organism-based; design: dose 3 mg/kg; settings: in vivo
[4] = in vivo; settings: Sprague-Dawley, rat, 3 mg/kg
Description: (§1) Clearance value in sprague dawley rat was determined at a dosage of 3 mg/kg

[5] = Terminal half life value in sprague dawley rat was determined at a dosage of 3 mg/kg; type: ADME, organism-based; design: dose 3 mg/kg; settings: in vivo
[6] = biological target: Urokinase-type plasminogen activator (Homo sapiens, UniProt P00749)
Description: Binding affinity value against urokinase plasminogen activator

[7] = Binding affinity value against thrombin
[8] = Bioavailability in rat (Sprague-Dawley) (dose 10 mg/kg); type: ADME, organism-based; settings: in vivo
[9] = rat, in vivo, 3 mg/kg
Description: as §1

[10] = biological target: Tissue-type plasminogen activator (Homo sapiens, UniProt P00750); assay: Binding affinity value against Tissue plasminogen activator
[11] = biological target: Plasminogen (Homo sapiens, UniProt P00747); assay: Binding affinity value against plasmin
[12] = biological target: Kallikrein-1 (Homo sapiens, UniProt P06870)
Description: Binding affinity value against kallikrein

[13] = Bioavailability in sprague dawley rat was determined at a dosage of 3 mg/kg; NT means not tested; type: ADME, organism-based; settings: in vivo
[14] = Area under the curve time curve value in sprague dawley rat was determined at a intravenous dosage of 10 mg/kg; type: ADME, organism-based; design: dose 10 mg/kg, route intravenous; settings: in vivo
[15] = in vivo; settings: Sprague-Dawley, rat, iv, 10 mg/kg
Description: Clearance value in sprague dawley rat was determined at a intravenous dosage of 10 mg/kg

[16] = Volume distribution value in sprague dawley rat was determined at a intravenous dosage of 10 mg/kg; type: ADME, organism-based; design: dose 10 mg/kg, route intravenous; settings: in vivo
[17] = Terminal half life value in sprague dawley rat was determined at a intravenous dosage of 10 mg/kg; type: ADME, organism-based; design: dose 10 mg/kg, route intravenous; settings: in vivo

Chain of Plasminogen (P00747 97-580 limits assumed): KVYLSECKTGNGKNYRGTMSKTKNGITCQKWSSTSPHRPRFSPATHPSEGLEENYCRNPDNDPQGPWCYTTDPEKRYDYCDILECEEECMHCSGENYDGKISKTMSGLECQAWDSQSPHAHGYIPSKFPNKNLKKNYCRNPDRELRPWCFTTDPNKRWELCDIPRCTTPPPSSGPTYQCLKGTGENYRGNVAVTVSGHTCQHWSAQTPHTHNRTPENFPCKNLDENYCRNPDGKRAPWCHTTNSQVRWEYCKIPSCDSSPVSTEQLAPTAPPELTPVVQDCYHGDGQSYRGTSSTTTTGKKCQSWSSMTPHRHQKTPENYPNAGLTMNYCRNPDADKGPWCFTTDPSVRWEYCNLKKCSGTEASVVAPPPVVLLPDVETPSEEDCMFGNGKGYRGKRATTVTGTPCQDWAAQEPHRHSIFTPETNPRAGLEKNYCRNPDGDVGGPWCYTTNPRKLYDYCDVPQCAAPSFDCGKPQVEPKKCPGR
Chain of Plasminogen (P00747 581-810 limits assumed): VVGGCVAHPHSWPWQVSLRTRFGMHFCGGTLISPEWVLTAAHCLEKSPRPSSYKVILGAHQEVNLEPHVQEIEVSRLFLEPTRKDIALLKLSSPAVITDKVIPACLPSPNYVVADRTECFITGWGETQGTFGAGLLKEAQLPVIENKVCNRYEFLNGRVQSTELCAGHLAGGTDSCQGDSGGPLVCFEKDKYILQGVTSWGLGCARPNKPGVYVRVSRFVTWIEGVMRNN
Chain of Trypsin (P00761 whole entry): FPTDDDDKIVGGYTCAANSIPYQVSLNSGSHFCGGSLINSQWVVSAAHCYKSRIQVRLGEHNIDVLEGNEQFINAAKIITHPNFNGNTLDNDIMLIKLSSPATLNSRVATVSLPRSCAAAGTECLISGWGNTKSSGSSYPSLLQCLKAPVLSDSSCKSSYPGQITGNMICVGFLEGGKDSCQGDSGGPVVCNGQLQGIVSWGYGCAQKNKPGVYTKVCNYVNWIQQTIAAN
Chain of Tissue-type plasminogen activator (P00750 whole entry): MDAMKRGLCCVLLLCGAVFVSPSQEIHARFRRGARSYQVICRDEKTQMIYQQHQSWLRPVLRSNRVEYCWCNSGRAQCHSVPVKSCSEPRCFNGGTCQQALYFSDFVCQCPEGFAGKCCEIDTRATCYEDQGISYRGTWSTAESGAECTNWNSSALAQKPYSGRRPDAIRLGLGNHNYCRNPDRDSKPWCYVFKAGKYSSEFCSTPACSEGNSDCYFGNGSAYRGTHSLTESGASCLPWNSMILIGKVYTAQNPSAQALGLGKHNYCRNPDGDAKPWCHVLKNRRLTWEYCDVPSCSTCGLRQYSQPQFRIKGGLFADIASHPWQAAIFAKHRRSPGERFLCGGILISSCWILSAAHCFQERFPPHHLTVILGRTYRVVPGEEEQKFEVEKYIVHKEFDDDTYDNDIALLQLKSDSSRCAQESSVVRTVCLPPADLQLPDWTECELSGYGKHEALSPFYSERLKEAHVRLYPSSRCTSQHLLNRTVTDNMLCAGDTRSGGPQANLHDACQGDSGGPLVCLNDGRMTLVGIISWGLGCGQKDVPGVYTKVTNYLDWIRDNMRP
Chain of Kallikrein-1 (P06870 whole entry): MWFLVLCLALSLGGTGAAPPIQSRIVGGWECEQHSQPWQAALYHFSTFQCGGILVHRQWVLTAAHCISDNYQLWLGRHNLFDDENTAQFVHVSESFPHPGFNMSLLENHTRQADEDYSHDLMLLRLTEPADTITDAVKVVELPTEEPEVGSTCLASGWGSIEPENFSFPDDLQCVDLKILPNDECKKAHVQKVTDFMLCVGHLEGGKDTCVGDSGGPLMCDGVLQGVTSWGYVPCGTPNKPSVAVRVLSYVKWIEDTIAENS

| Structure (SMILES) | Ki [1] [µM] | Vd [2] [L/kg] | AUC ([3]; Sprague-Dawley, read-out: AUC) [nM·h] | clearance [4] [L/h/kg] | half-life [5] [h] | Ki [6] [µM] | Ki [7] [µM] | bioavailability [8] [%] | AUC [3] [nM·h] | CI [9] [L/h/kg] | Ki [10] [µM] | Ki [11] [µM] | Ki [12] [µM] | CI ([9]; Sprague-Dawley) [L/h/kg] | AUC [13] [nM·h] | AUC [14] [nM·h] | clearance [15] [L/h/kg] | Vd [16] [L/kg] | half-life [17] [h] |
| --- | --- | --- | --- | --- | --- | --- | --- | --- | --- | --- | --- | --- | --- | --- | --- | --- | --- | --- | --- |
| N=C(N)c1ccc2cc(C(=O)Nc3ccccc3)cc(Nc3ncccn3)c2c1 | 0.04 | 37.1 | 140 | 42.9 | 0.6 | 0.2 | 0.17 | 0 | – | – | – | – | – | – | – | – | – | – | – |
| N=C(N)c1ccc2cc(C(=O)Nc3ccccc3)ccc2c1 | 0.325 | 8.5 | – | – | 2.1 | – | 5.64 | 3 | 8200 | 2.8 | – | – | – | – | – | – | – | – | – |
| CC(C)C1=NCCc2ccc(C3CC3c3ccc4cc(C(=N)N)ccc4c3)cc21 (stereo not drawn) | 0.053 | 18.6 | 510 | 9.67 | 1.33 | – | 2.14 | 26 | – | – | 4.74 | 1.05 | 0.525 | – | – | – | – | – | – |
| N=C(N)c1ccc2cc(CCc3ccccc3)cc(Nc3ncccn3)c2c1 | 0.167 | 13.6 | – | – | 2 | – | 0.191 | 0 | 4200 | – | 5.79 | 0.57 | 0.156 | 4.7 | – | – | – | – | – |
| N=C(N)c1ccc2cc(C3CC3c3ccccc3)cc(Br)c2c1 (stereo not drawn) | 0.334 | 14.3 | 2720 | 2.1 | 4.71 | 0.622 | 0.503 | 17 | – | – | 30.8 | 0.239 | 0.379 | – | – | – | – | – | – |
| CN1CCc2ccc(C3CC3c3ccc4cc(C(=N)N)ccc4c3)cc2C1C(C)(C)C (stereo not drawn) | – | – | – | – | – | 0.548 | – | – | – | – | – | – | – | – | – | – | – | – | – |
| N=C(N)c1ccc2cc(C(=O)Nc3ccccc3)cc(Br)c2c1 | 0.064 | 18.7 | – | 12.3 | 1.05 | 0.281 | 2.66 | 0 | – | – | 5.59 | 1.02 | 0.992 | – | 600 | – | – | – | – |
| N=C(N)c1ccc2cc(C3CC3c3ccc4c(c3)C(C3CCCCC3)=NCC4)ccc2c1 (stereo not drawn) | 0.428 | 4.5 | 570 | 11.5 | 0.27 | – | 1.14 | 22 | – | – | 4.02 | 0.594 | 0.206 | – | – | – | – | – | – |
| CC(C)Oc1cccc(C2CC2c2ccc3cc(C(=N)N)ccc3c2)c1 (stereo not drawn) | 0.141 | 19.3 | 3480 | 2.26 | 5.91 | – | 1.1 | 23 | – | – | 21.9 | 2.45 | 1.4 | – | – | – | – | – | – |
| N=C(N)c1ccc2cc(CCc3ccccc3)cc(Br)c2c1 | – | 18 | 1750 | 3.8 | 3.3 | – | – | > 32 | – | – | – | – | – | – | – | – | – | – | – |
| N=C(N)c1ccc2cc(C3CC3c3ccc4c(c3)C(c3ccccc3)=NCC4)ccc2c1 (stereo not drawn) | 0.165 | – | – | – | – | – | 2.12 | – | – | – | 7.04 | 0.955 | 0.336 | – | – | – | – | – | – |
| N=C(N)c1ccc2cc(CCc3ccccc3)cc(-c3ccoc3)c2c1 | – | 1.53 | – | – | – | 0.731 | – | 18 | 17600 | – | – | – | – | 3.31 | – | – | – | – | – |
| CN1CCc2ccc(C3CC3c3ccc4cc(C(=N)N)ccc4c3)cc2C1C1CCCCC1 (stereo not drawn) | 0.031 | 18.7 | 530 | 8.49 | 1.53 | – | 0.996 | 27 | – | – | 18.9 | 0.811 | 0.295 | – | – | – | – | – | – |
| N=C(N)c1ccc2cc(C3CC3c3ccccc3)cc(Nc3ncccn3)c2c1 (stereo not drawn) | 0.054 | 10 | 230 | 21.1 | 0.33 | 0.005 | 0.048 | 0 | – | – | 5.05 | 0.243 | 0.054 | – | – | – | – | – | – |
| CC(C)C1=NCCc2ccc([C@H]3CC3c3ccc4cc(C(=N)N)ccc4c3)cc21 (stereo partly drawn) | 0.03 | – | – | – | – | – | 1.79 | – | – | – | 10.4 | 1.48 | 0.64 | – | – | – | – | – | – |
| N=C(N)c1ccc2cc(C3CC3c3ccccc3)cc(-c3ccoc3)c2c1 (stereo not drawn) | – | 2.4 | – | – | – | – | – | 10 | 14500 | – | – | – | – | 4.2 | – | – | – | – | – |
| CC(C)C1=NCCc2cc(C3CC3c3ccc4cc(C(=N)N)ccc4c3)ccc21 (stereo not drawn) | – | – | – | – | 0.33 | – | – | 0 | – | – | – | – | – | – | – | 270 | 16.4 | 7.9 | – |
| N=C(N)c1ccc2cc(CCc3ccccc3)ccc2c1 | – | 9.8 | 1140 | 6.75 | 1 | 3.18 | – | 60 | – | – | – | – | – | – | – | – | – | – | – |
| N=C(N)c1ccc2cc(/C=C/c3ccccc3)ccc2c1 | 0.346 | – | – | – | – | – | 5.27 | – | – | – | 34.6 | – | 0.991 | – | – | – | – | – | – |
| CC(C)C1c2cc(C3CC3c3ccc4cc(C(=N)N)ccc4c3)ccc2CCN1C (stereo not drawn) | 0.09 | 10.3 | 370 | 12.9 | 0.55 | – | 1.8 | 55 | – | – | 6.23 | 1.3 | 0.576 | – | – | – | – | – | – |
| N=C(N)c1ccc2cc(C(=O)Nc3ccccc3)cc(-c3ccoc3)c2c1 | 0.045 | 21.7 | – | – | 3 | – | 0.132 | 0 | 5000 | 5 | – | – | – | – | – | – | – | – | – |
| N=C(N)c1ccc2cc(/C=C/c3ccccc3)cc(-c3ccoc3)c2c1 | 0.096 | – | – | 1.3 | 0.62 | 0.168 | 0.237 | 0 | – | – | 4.46 | 0.134 | 0.083 | – | – | 5800 | – | 1.2 | – |
| N=C(N)c1ccc2cc(/C=C/c3ccccc3)cc(Br)c2c1 | 0.48 | – | – | – | – | 0.82 | 0.92 | – | – | – | 13.4 | 1.35 | 0.77 | – | – | – | – | – | – |
| N=C(N)c1ccc2cc(/C=C/c3ccccc3)cc(Nc3ncccn3)c2c1 | 0.084 | – | – | – | – | 0.01 | 0.395 | – | – | – | > 50 | 0.277 | 0.042 | – | – | – | – | – | – |
| CC1c2cc(C3CC3c3ccc4cc(C(=N)N)ccc4c3)ccc2CCN1C (stereo not drawn) | – | 2.9 | 690 | 7.28 | 0.28 | – | – | 0 | – | – | – | – | – | – | – | – | – | – | – |
| N=C(N)c1ccc2cc(C3CC3c3ccccc3)ccc2c1 (stereo not drawn) | 0.72 | 23 | – | – | – | – | 1.89 | 30 | 11600 | 2.16 | 69.1 | 3.52 | 2.48 | – | – | – | – | – | 7.4 |

From ChEMBL document CHEMBL1139552, “Naphthamidine urokinase plasminogen activator inhibitors with improved pharmacokinetic properties” (Bioorg Med Chem Lett, 2005)
